Here are results for one compound from US6710086B1, “Protected forms of pharmacologically active agents and uses therefor” (Medinox, Inc., priority 2000, dated 2004).

SMILES strings stand for the structures.

This assay concerns adjuvant-induced arthritis. Conditions: high doses: naproxen 10 mg/kg, conjugate 18 mg/kg, oral daily on days 5-8 and 11-14; day 15.

As for `COc1ccc2cc([C@H](C)C(=O)O)ccc2c1` [Naproxen, (S)-(+)-methoxy-α-methyl-2-naphthaleneacetic acid], the “Reduction of swelling compared to control” value is given as “approximately 70%”.
